Reference: patent US6344180B1 (BioNebraska, Inc., priority 1999, dated 2002)
Ends that are not written are not given here.

How the values were obtained:
β-cell secretion [1] = assay: Part three: combined glucose+GLP-1 injection vs hyperglycemic clamp with L-arginine, maximal secretory capacity; type: in vivo, human; conditions: for Incremental C-peptide response (peak minus concentration at time of injection) / Incremental insulin response (peak minus concentration at time of injection): hyperglycemic clamp 30 mmol/l, 5 g L-arginine bolus at 45 min; for Absolute mean peak C-peptide concentration / Absolute mean peak insulin concentration: hyperglycemic clamp with 5 g L-arginine
From the text: (§1) The present study was divided into three parts.
(§2) Part one: Six type II diabetic patients (four men and two women, mean (range), age: 56 years (48-67 years); BMI: 31.1 kg/m^2 (27-38 kg/m^2); HbA1c; 9.6% (7,0-12.5%) ) and 6 healthy subjects individually matched for sex, age and BMI (age: 56 years (51-70 years); BMI: 31.6 kg/m^2 (26-37 kg/M^2); HbA1c: 5.5% (5.2-5.8%)). […] Part three 8 type II diabetic patients (seven men and one woman, age: 55 years (49-69 years); BMI: 30.9 kg/m^2 (27-35 kg/M^2); HbA1c: 7.6% (6.3-8.6%)) and 8 healthy subjects (age: 55 years (51-64 years); BMI 31.1 kg/m^2 (25-38 kg/m^2); HbA1c: 5.4% (5.0-6.0%)) participated. Four patients were treated with diet alone while four were treated with diet and oral antidiabetics (sulphonylureas and/or biguanides). […] All type II diabetic patients were diagnosed according to the criteria of National Diabetes Data Group. […] All agreed to participate after oral and written information.
(§3) All oral antidiabetics were discontinued 72 hours before the study.
During the hyperglycemic clamp, glucose (50% w/v) was injected at time zero to increase the plasma glucose to 30 mmol/l (calculated as follows: (30 mmol/l−fasting plasma glucose)×35 mg glucose×weight in kilogram). Plasma glucose was kept at 30 mmol/l by continuous infusion of glucose, which was adjusted according to a bedside measurement of plasma glucose ever 5 minutes. At 45 minutes, 5 g L-arginine monohydrochloride was injected as a bolus during 30 seconds. Blood was sampled 15, 10 and 0 minutes before and 5, 10, 15, 20, 25, 30, 35, 40, 45, 47, 48, 49, 51, 53, 55, 60, 65, 70, 75 and 90 minutes after elevation of plasma glucose. The L-arginine was dissolved in 50 ml of sterilized water and dispensed into glass ampoules and stored at 4° C. until the day of the experiment. Blood was sampled into fluoride tubes for measurement of glucose and into chilled EDTA tubes with aprotinin (500 KIU/ml blood; Trasylol, Bayer, Leverkusen, Germany) for peptide analyses. Tubes were immediately cooled on ice and centrifuged within 20 minutes at 4° C., and plasma was stored at −20° C. until analysis.
(§4) Plasma glucose concentrations were measured during the experiments using a glucose oxidase method with a Glucose Analyzer (Yellow Springs Instrument Model 23 A, USA). Plasma insulin concentrations were measured according to Albano et al using standards of human insulin and antibody code no. 2004. The sensitivity of the assay is approximately 3 pmol/l, the intraassay coefficient of variation is 8% at 48 pmol/l. C-peptide concentrations were determined by radioimmunoassay (RIA) as described by Heding et al employing the polyclonal antibody M1230[12]. […] The detection limit is approximately 60 pmol/l, the intra-assay coefficient of variance is 5%, interassay coefficient of variation is 7.3%. […] The assay has a detection limit of 5 pmol/l. […] The detection limit is 1 pmol/l.

pancreas = conditions: cited from earlier work
β-cell secretion [2] = assay: Part two: 2.5 nmol GLP-1, glucagon test, combined glucose+GLP-1 injection and s.c. GLP-1, peak plasma insulin and C-peptide; type: in vivo, human; conditions: glucagon test 1 mg I.V.
From the text: as §1, §2, §3
(§5) Meal test: Venous blood was drawn 15, 10 and 0 min before and 15, 30, 45, 60, 75, 90, 120, 150 and 180 minutes after ingestion of a standard breakfast meal. […] The peptide was dissolved in sterilized water containing 2% human serum albumin (Albumin Nordisk, Novo Nordisk, Bagsvaerd, Denmark, guaranteed to be free of hepatitis-B surface antigen and human immunodeficiency virus antibodies) and subjected to sterile filtration. Appropriate amounts of peptide for each experimental subject were dispensed into glass ampoules and stored frozen under sterile conditions until the day of the experiment. Part two: β-cell function was examined on 3 different days. […] Fifteen minutes later plasma glucose was elevated to 15 mmol/l by intravenous glucose (50% w/v) administration as described above.
as §4

β-cell secretion [3] = assay: Part one: dose-response of I.V. bolus GLP-1 compared with glucagon test, peak plasma insulin and C-peptide; type: in vivo, human; conditions: glucagon test 1 mg I.V. bolus
From the text: as §1, §2, §3, §5, §4

[4] = test system: insulin secretion and blood glucose; conditions: infusions in patients with type II diabetes; cited from earlier work

Cl.N=C(N)NCCC[C@H](N)C(=O)O [L-arginine, L-arginine monohydrochloride]
Incremental C-peptide response (peak minus concentration at time of injection) (β-cell secretion [1]; healthy subjects): 3391 ± 388 pmol/L | Incremental insulin response (peak minus concentration at time of injection) (β-cell secretion [1]; healthy subjects): 1921 ± 338 pmol/L | Incremental C-peptide response (peak minus concentration at time of injection) (β-cell secretion [1]; type II diabetic patients): 1360 ± 250 pmol/L | Incremental insulin response (peak minus concentration at time of injection) (β-cell secretion [1]; type II diabetic patients): 628 ± 226 pmol/L | Absolute mean peak C-peptide concentration (β-cell secretion [1]; healthy subjects): 6047 ± 652 pmol/L | Absolute mean peak insulin concentration (β-cell secretion [1]; healthy subjects): 2384 ± 452 pmol/L | Absolute mean peak C-peptide concentration (β-cell secretion [1]; type II diabetic patients): 3043 ± 508 pmol/L | Absolute mean peak insulin concentration (β-cell secretion [1]; type II diabetic patients): 816 ± 268 pmol/L

Glu Gly Thr Phe Thr Ser Asp Val Ser Ser Tyr Leu Glu Gly Gln Ala Ala Lys Glu Phe Ile Ala Trp Leu Val Lys Gly Arg (NH2) (EGTFTSDVSSYLEGQAAKEFIAWLVKGR-NH2; listed as Homo sapiens) [SEQ. ID NO:6]
Stimulation of production or release of insulin from the pancreas (pancreas): do not stimulate

Glu Gly Thr Phe Thr Ser Asp Val Ser Ser Tyr Leu Glu Gly Gln Ala Ala Lys Glu Phe Ile Ala Trp Leu Val Lys Gly Arg Gly (EGTFTSDVSSYLEGQAAKEFIAWLVKGRG; listed as Homo sapiens) [SEQ. ID NO:5]
Stimulation of production or release of insulin from the pancreas (pancreas): do not stimulate

glucagon
Peak C-peptide concentration (mean ± SEM) (β-cell secretion [2]; healthy controls): 1995 ± 99 pmol/L | Peak insulin concentration (mean ± SEM) (β-cell secretion [2]; healthy controls): 420 ± 61 pmol/L | Peak C-peptide concentration (mean ± SEM) (β-cell secretion [2]; type 2 diabetic patients): 1780 ± 160 pmol/L | Peak insulin concentration (mean ± SEM) (β-cell secretion [2]; type 2 diabetic patients): 329 ± 50 pmol/L | Peak C-peptide concentration (mean ± SEM) (β-cell secretion [3]; healthy controls): 1874 ± 158 pmol/L | Peak insulin concentration (mean ± SEM) (β-cell secretion [3]; healthy controls): 360 ± 39 pmol/L | Peak C-peptide concentration (mean ± SEM) (β-cell secretion [3]; type 2 diabetic patients): 1643 ± 178 pmol/L | Peak insulin concentration (mean ± SEM) (β-cell secretion [3]; type 2 diabetic patients): 265 ± 45 pmol/L

glucose-dependent insulinotropic polypeptide [GIP]
Effect on insulin secretion and blood glucose [4]: little or no effect
